# Test results published in PMC11079024, “Identification of a family of species-selective complex I inhibitors as potential anthelmintics” (Nature Communications, 2024).
# “And” between values parts separate entries of the source, which are not always exact repeats. Identical values can stand only once. Like-named read-outs stand apart in the source and are kept apart here.
# Target: C. elegans (N2) complex I (NADH:ubiquinone oxidoreductase) (Caenorhabditis elegans, UniProt P24887+Q93873+Q94360)
# Experiment: biochemical
# Format: biochemical
# Outline: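 Mitochondria, 0.2 mg/mL protein, freeze-thawed three times, assayed in 25 mM KPi pH 7.5 with BSA, 80 μM NADH, 60 μM decylubiquinone, 160 μM DCIP, antimycin A and KCN. Rate from initial linear slope of A600 over 15 min. % of solvent control.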
# [1] = C. elegans, Mean of replicates, read-out: Complex I activity, dose-response data
# [2] = C. elegans, individual replicates (Rep), read-out: Complex I activity, dose-response data
# Sequence of C. elegans (N2) complex I (NADH:ubiquinone oxidoreductase) (Q94360 17-199): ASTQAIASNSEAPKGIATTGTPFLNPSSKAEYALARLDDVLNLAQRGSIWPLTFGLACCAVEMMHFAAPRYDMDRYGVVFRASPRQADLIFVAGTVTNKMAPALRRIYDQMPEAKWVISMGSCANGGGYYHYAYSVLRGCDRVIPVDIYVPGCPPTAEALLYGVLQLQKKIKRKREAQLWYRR
# Sequence of C. elegans (N2) complex I (NADH:ubiquinone oxidoreductase) (P24887 whole entry): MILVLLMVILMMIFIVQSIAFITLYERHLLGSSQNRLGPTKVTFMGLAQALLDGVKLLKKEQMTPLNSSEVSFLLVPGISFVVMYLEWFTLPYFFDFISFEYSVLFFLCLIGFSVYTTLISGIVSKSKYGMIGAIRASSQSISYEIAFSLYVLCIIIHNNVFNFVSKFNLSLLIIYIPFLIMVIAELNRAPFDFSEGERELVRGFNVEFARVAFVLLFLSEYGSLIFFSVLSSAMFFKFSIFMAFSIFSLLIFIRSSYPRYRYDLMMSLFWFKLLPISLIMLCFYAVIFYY
# Sequence of C. elegans (N2) complex I (NADH:ubiquinone oxidoreductase) (Q93873 31-482): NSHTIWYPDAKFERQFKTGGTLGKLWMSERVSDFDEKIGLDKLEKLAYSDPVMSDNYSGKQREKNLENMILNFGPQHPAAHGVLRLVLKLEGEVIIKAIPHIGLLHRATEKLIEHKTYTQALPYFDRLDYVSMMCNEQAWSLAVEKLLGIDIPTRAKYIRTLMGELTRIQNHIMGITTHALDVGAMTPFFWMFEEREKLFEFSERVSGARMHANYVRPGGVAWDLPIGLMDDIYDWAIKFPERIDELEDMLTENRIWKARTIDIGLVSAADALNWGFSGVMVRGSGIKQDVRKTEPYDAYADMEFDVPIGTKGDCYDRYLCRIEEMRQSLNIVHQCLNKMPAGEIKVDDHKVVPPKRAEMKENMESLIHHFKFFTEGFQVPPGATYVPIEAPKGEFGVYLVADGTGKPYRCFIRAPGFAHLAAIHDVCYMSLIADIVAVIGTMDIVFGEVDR
smiles,measurement,setting,value
COc1cc2c(cc1OC)C(/C=C/c1ccc(N(C)C)cc1)=NCC2 [NPD6303],remaining activity at 3 µM,"3 µM, wild-type C. elegans mitochondria, single replicate, read-out: percent (%) in vitro complex I activity relative to solvent control",82.5%
same,remaining activity at 15 µM,"15 µM, wild-type C. elegans mitochondria, mean of replicates, read-out: percent (%) in vitro complex I activity relative to solvent control",47.6%
same,remaining activity at 37.5 µM,"37.5 µM, wild-type C. elegans mitochondria, mean of replicates, read-out: percent (%) in vitro complex I activity relative to solvent control",15%
same,remaining activity at 75 µM,"75 µM, wild-type C. elegans mitochondria, mean of replicates, read-out: percent (%) in vitro complex I activity relative to solvent control",9.53%
same,activity at 100 µM,"100 µM compound, relative to solvent control, mean (SEM), read-out: % Activity Complex I",12.7%
same,"Percent in vitro activity, Complex I (single replicate Rep1-Rep4)","100 μM of NPD compound, C. elegans mitochondria, individual biological replicates, 100 µM",10.460% and 12.057% and 12.075%
same,activity at 100 µM,"100 μM of NPD compound, C. elegans mitochondria, individual biological replicates, read-out: Percent in vitro activity, Complex I (single replicate Rep1-Rep4)",16.4%
same,activity at 100 µM,"100 μM of NPD compound, C. elegans mitochondria, mean of four biological replicates, read-out: Percent in vitro activity, Complex I (Mean)",12.7%
same,activity at 0.0001 µM,"C. elegans, dose 0.0001 µM, Mean of replicates, read-out: Complex I activity, dose-response data",98.7%
same,"Complex I activity, dose-response data","C. elegans, dose 0.0001 µM, individual replicates (Rep)",97.469 and 99.188
same,activity at 0.0001 µM,"C. elegans, dose 0.0001 µM, individual replicates (Rep), read-out: Complex I activity, dose-response data",101%
same,activity at 0.0005 µM,[1],100%
same,activity at 0.0005 µM,[2],100%
same,activity at 0.001 µM,"C. elegans, dose 0.001 µM, Mean of replicates, read-out: Complex I activity, dose-response data",98.7%
same,"Complex I activity, dose-response data","C. elegans, dose 0.001 µM, individual replicates (Rep)",94.995 and 103.570
same,activity at 0.001 µM,"C. elegans, dose 0.001 µM, individual replicates (Rep), read-out: Complex I activity, dose-response data",101%
same,activity at 0.0025 µM,"C. elegans, dose 0.0025 µM, Mean of replicates, read-out: Complex I activity, dose-response data",103%
same,"Complex I activity, dose-response data","C. elegans, dose 0.0025 µM, individual replicates (Rep)",97.419 and 110.831
same,activity at 0.0025 µM,"C. elegans, dose 0.0025 µM, individual replicates (Rep), read-out: Complex I activity, dose-response data",106%
same,activity at 0.005 µM,"C. elegans, dose 0.005 µM, Mean of replicates, read-out: Complex I activity, dose-response data",99.6%
same,"Complex I activity, dose-response data","C. elegans, dose 0.005 µM, individual replicates (Rep)",94.468 and 104.617
same,activity at 0.005 µM,"C. elegans, dose 0.005 µM, individual replicates (Rep), read-out: Complex I activity, dose-response data",105%
same,activity at 0.013 µM,"C. elegans, dose 0.013 µM, Mean of replicates, read-out: Complex I activity, dose-response data",97.2%
same,"Complex I activity, dose-response data","C. elegans, dose 0.013 µM, individual replicates (Rep)",91.183 and 107.524
same,activity at 0.013 µM,"C. elegans, dose 0.013 µM, individual replicates (Rep), read-out: Complex I activity, dose-response data",98.9%
same,activity at 0.025 µM,"C. elegans, dose 0.025 µM, Mean of replicates, read-out: Complex I activity, dose-response data",97.1%
same,"Complex I activity, dose-response data","C. elegans, dose 0.025 µM, individual replicates (Rep)",90.226 and 107.714
same,activity at 0.025 µM,"C. elegans, dose 0.025 µM, individual replicates (Rep), read-out: Complex I activity, dose-response data",100%
same,activity at 0.063 µM,"C. elegans, dose 0.063 µM, Mean of replicates, read-out: Complex I activity, dose-response data",95.9%
same,"Complex I activity, dose-response data","C. elegans, dose 0.063 µM, individual replicates (Rep)",89.273 and 101.913
same,activity at 0.063 µM,"C. elegans, dose 0.063 µM, individual replicates (Rep), read-out: Complex I activity, dose-response data",103%
same,activity at 0.125 µM,"C. elegans, dose 0.125 µM, Mean of replicates, read-out: Complex I activity, dose-response data",93.1%
same,"Complex I activity, dose-response data","C. elegans, dose 0.125 µM, individual replicates (Rep)",87.998 and 93.858
same,activity at 0.125 µM,"C. elegans, dose 0.125 µM, individual replicates (Rep), read-out: Complex I activity, dose-response data",103%
same,activity at 0.313 µM,"C. elegans, dose 0.313 µM, Mean of replicates, read-out: Complex I activity, dose-response data",88%
same,"Complex I activity, dose-response data","C. elegans, dose 0.313 µM, individual replicates (Rep)",86.077 and 96.329
same,activity at 0.313 µM,"C. elegans, dose 0.313 µM, individual replicates (Rep), read-out: Complex I activity, dose-response data",83.6%
same,activity at 0.625 µM,"C. elegans, dose 0.625 µM, Mean of replicates, read-out: Complex I activity, dose-response data",108%
same,"Complex I activity, dose-response data","C. elegans, dose 0.625 µM, individual replicates (Rep)",108.371 and 107.823
same,activity at 0.625 µM,"C. elegans, dose 0.625 µM, individual replicates (Rep), read-out: Complex I activity, dose-response data",106%
same,activity at 1.5 µM,[1],100%
same,activity at 1.5 µM,[2],100%
same,activity at 3 µM,"C. elegans, dose 3 µM, Mean of replicates, read-out: Complex I activity, dose-response data",89.5%
same,"Complex I activity, dose-response data","C. elegans, dose 3 µM, individual replicates (Rep)",88.910 and 97.542
same,activity at 3 µM,"C. elegans, dose 3 µM, individual replicates (Rep), read-out: Complex I activity, dose-response data",82.5%
same,activity at 15 µM,"C. elegans, dose 15 µM, Mean of replicates, read-out: Complex I activity, dose-response data",47.6%
same,"Complex I activity, dose-response data","C. elegans, dose 15 µM, individual replicates (Rep)",33.770 and 49.973 and 56.558
same,activity at 37.5 µM,"C. elegans, dose 37.5 µM, Mean of replicates, read-out: Complex I activity, dose-response data",15%
same,"Complex I activity, dose-response data","C. elegans, dose 37.5 µM, individual replicates (Rep)",10.655 and 12.339 and 24.559
same,activity at 75 µM,"C. elegans, dose 75 µM, Mean of replicates, read-out: Complex I activity, dose-response data",9.53%
same,"Complex I activity, dose-response data","C. elegans, dose 75 µM, individual replicates (Rep)",11.807 and 4.396 and 17.534
same,IC50,"wild-type (N2) mitochondria, read-out: C. elegans Complex I IC50",11.9 µM and 11 µM
